Measured values taken from patent publication US7399868B2, “4-(Heteroaryl-methyl and substituted heteroaryl-methyl)-imidazole-2-thiones acting as alpha2 adrenergic agonists” (Allergan, Inc., priority 2004, dated 2008).

Assays:
[1] = target: T1, alpha2B adrenergic receptor (Homo sapiens, UniProt P18089); assay: Receptor Selection and Amplification Technology (RSAT) assay, alpha2B; format: cell-based; details: ratio of maximal effect to that of standard full agonist brimonidine (UK14304)
T1 construct: expressed in transfected cells; host or cells: NIH-3T3
T1 sequence (P18089 1-450): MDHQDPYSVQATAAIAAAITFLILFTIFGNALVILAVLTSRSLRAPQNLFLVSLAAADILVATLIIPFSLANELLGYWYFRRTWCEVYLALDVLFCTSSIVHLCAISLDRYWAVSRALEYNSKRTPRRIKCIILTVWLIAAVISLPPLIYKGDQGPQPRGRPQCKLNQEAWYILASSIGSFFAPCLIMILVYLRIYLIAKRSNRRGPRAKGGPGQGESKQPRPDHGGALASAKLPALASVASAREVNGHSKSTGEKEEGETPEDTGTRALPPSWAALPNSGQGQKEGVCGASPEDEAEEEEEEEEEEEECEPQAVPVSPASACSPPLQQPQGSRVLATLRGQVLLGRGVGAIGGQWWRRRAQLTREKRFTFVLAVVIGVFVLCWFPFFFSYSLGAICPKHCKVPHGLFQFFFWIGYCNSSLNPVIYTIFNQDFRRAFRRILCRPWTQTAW
Text: (§1) The imidazole-2-thione compounds of the invention are agonists of alpha2 adrenergic receptors. […] Al., 1995, Pharmacol. Toxicol. 76, pp. 308-311 (incorporated herein by reference) and is also described below. Another reference pertinent to this assay is Conklin et al. (1993) Nature 363:274-6, also incorporated herein by reference.
(§2) Receptor Selection and Amplification Technology (RSAT) Assay
The RSAT assay measures a receptor-mediated loss of contact inhibition that results in selective proliferation of receptor-containing cells in a mixed population of confluent cells. The increase in cell number is assessed with an appropriate transfected marker gene such as ∃-galactosidase, the activity of which can be easily measured in a 96-well format. Receptors that activate the G protein, Gq, elicit this response. Alpha2 receptors, which normally couple to Gi, activate the RSAT response when coexpressed with a hybrid Gq protein that has a Gi receptor recognition domain, called Gq/i5.
NIH-3T3 cells are plated at a density of 2×10^6 cells in 15 cm dishes and maintained in Dulbecco's modified Eagle's medium supplemented with 10% calf serum. One day later, cells are cotransfected by calcium phosphate precipitation with mammalian expression plasmids encoding p-SV-β-galactosidase (5-10 μg), receptor (1-2 μg) and G protein (1-2 μg). 40 μg salmon sperm DNA may also be included in the transfection mixture. Fresh media is added on the following day and 1-2 days later, cells are harvested and frozen in 50 assay aliquots. Cells are thawed and 100 μl added to 100 μl aliquots of various concentrations of drugs in triplicate in 96-well dishes. Incubations continue 72-96 hr at 37° C. After washing with phosphate-buffered saline, ∃-galactosidase enzyme activity is determined by adding 200 μl of the chromogenic substrate (consisting of 3.5 mM o-nitrophenyl-β-D-galactopyranoside and 0.5% nonidet P-40 in phosphate buffered saline), incubating overnight at 30° C. and measuring optical density at 420 nm. The absorbance is a measure of enzyme activity, which depends on cell number and reflects a receptor-mediated cell proliferation. The efficacy or intrinsic activity is calculated as a ratio of the maximal effect of the drug to the maximal effect of a standard full agonist for each receptor subtype. Brimonidine, also called UK14304, the chemical structure of which is shown below, is used as the standard agonist for the alpha2A, alpha2B and alpha2C receptors.
The results of the RSAT assay with several exemplary compounds of the invention are disclosed in Table 1 above together with the chemical formulas of these examplary compounds. NA stands for “not active” at concentrations less than 10 micromolar.

[2] = target: T2, alpha2C adrenergic receptor (Homo sapiens, UniProt P18825); assay: Receptor Selection and Amplification Technology (RSAT) assay, alpha2C; format: cell-based; details: ratio of maximal effect to that of standard full agonist brimonidine (UK14304)
T2 construct: expressed in transfected cells; host or cells: NIH-3T3
T2 sequence (P18825 1-462): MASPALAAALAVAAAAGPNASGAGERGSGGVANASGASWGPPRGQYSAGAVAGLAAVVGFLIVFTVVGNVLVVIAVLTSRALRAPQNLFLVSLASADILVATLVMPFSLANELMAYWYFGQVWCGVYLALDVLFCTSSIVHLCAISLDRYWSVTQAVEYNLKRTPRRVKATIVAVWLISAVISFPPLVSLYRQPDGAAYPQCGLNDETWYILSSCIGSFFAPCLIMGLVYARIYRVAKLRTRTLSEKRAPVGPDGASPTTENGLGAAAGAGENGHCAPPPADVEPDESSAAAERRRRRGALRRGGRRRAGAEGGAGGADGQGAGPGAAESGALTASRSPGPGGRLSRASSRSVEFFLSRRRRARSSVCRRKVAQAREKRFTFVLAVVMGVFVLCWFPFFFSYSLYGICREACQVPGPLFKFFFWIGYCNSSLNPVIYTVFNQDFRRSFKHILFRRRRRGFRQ
Text: as §1, §2
The RSAT assay measures a receptor-mediated loss of contact inhibition that results in selective proliferation of receptor-containing cells in a mixed population of confluent cells. The increase in cell number is assessed with an appropriate transfected marker gene such as ∃-galactosidase, the activity of which can be easily measured in a 96-well format. […]
NIH-3T3 cells are plated at a density of 2×10^6 cells in 15 cm dishes and maintained in Dulbecco's modified Eagle's medium supplemented with 10% calf serum. […] After washing with phosphate-buffered saline, ∃-galactosidase enzyme activity is determined by adding 200 μl of the chromogenic substrate (consisting of 3.5 mM o-nitrophenyl-β-D-galactopyranoside and 0.5% nonidet P-40 in phosphate buffered saline), incubating overnight at 30° C. and measuring optical density at 420 nm. The absorbance is a measure of enzyme activity, which depends on cell number and reflects a receptor-mediated cell proliferation. […]

male Sprague-Dawley rats = assay: Sedative activity (exploratory behavior/locomotor) in rats; format: in vivo, rat; details: intraperitoneally, up to a dose of 1 mg/kg
Procedure: To test sedation, six male Sprague-Dawley rats are given up to 3 mg/kg of the test compound in a saline or DMSO vehicle by intraperitoneal injection (i.p.). Sedation is graded 30 minutes following administration of the drug by monitoring locomotor skills as follows.
The Sprague-Dawley rats are weighed and 1 ml/kg body weight of an appropriate concentration (ie. 3 mg/ml for a final dose of 3 mg/kg) drug solution is injected intraperitoneally. Typically the test compound is formulated in approximately 10 to 50% DMSO. The results are compared to controls that are injected with 1 ml/kg saline or 10 to 50% DMSO. Rat activity is then determined 30 minutes after injection of the drug solution. Rats are placed in a dark covered chamber and a digicom analyzer (Omnitech Electronic) quantitates their exploratory behavior for a five-minute period. The machine records each time the rat interrupts an array of 32 photoelectric beams in the X and Y orientation.
Effects on Cardiovascular System

[3] = tested on: rats with ligated L5 and L6 spinal nerves; assay: Chung model of neuropathic pain (tactile allodynia, von Frey hairs); format: in vivo, rat; details: 30 min following drug administration, p<0.001 compared to pretreatment
Text: Alleviation of Chronic Pain
A model in accordance with Kim and Chung 1992, Pain […], pp 355-363 (Chung model), for chronic pain (in particular peripheral neuropathy) involves the surgical ligation of the L5 (and optionally the L6) spinal nerves on one side in experimental animals. Rats recovering from the surgery gain weight and display a level of general activity similar to that of normal rats. However, these rats develop abnormalities of the foot, wherein the hindpaw is moderately everted and the toes are held together. More importantly, the hindpaw on the side affected by the surgery appears to become sensitive to pain from low-threshold mechanical stimuli, such as that producing a faint sensation of touch in a human, within about 1 week following surgery. This sensitivity to normally non-painful touch is called “tactile allodynia” and lasts for at least two months. […]
Tactile allodynia is measured prior to and 30 minutes after drug administration using von Frey hairs that are a series of fine hairs with incremental differences in stiffness. […] The applied force has been calculated to range from 0.41 to 15.1 grams. […] The 50% paw withdrawal threshold is determined using the method of Dixon, W. J., Ann. […] The post-drug threshold is compared to the pre-drug threshold and the percent reversal of tactile sensitivity is calculated based on a normal threshold of 15.1 grams. […]

Row | Compound | Intrinsic Activity Alpha 2B [1] | other results
1 | S=c1[nH]cc(Cn2ccc3c(Cl)cccc32)[nH]1 [Compound 1, 4-(4-chloro-indol-1-ylmethyl)-1,3-dihydro-imidazole-2-thione] | 1.17 | 
2 | S=c1[nH]cc(Cn2ccc3cccc(Br)c32)[nH]1 [Compound 5, 4-(7-Bromo-indol-1-ylmethyl)-1,3-dihydro-imidazole-2-thione] | 1.01 | Intrinsic Activity Alpha 2C [2]: 0.77; sedative effect (male Sprague-Dawley rats): no sedative effect
3 | S=c1[nH]cc(Cn2ccc3ccc(Cl)c(Cl)c32)[nH]1 [Compound 6, 4-(6,7-Dichloro-indol-1-ylmethyl)-1,3-dihydro-imidazole-2-thione] | 0.98 | 
4 | S=c1[nH]cc(Cn2ccc3ccc(Cl)nc32)[nH]1 [Compound 8, 4-(6-Chloro-pyrrolo[2,3-b]pyridin-1-ylmethyl)-1,3-dihydro-imidazole-2-thione] | 0.76 | 
5 | S=c1[nH]cc(Cc2cccs2)[nH]1 [Compound 10, 4-thiophen-2-ylmethyl-1,3-dihydro-imidazole-2-thione] | 1.09 | 
6 | S=c1[nH]cc(Cn2ccc3ccnc(Cl)c32)[nH]1 [Compound 7, 4-(7-chloro-pyrrolo[2,3-c]pyridin-1-ylmethyl)-1,3-dihydro-imidazole-2-thione] | 1.5 | 
7 | Fc1cccc2ccn(Cc3c[nH]c(=S)[nH]3)c12 [Compound 3, 4-(7-fluoro-indol-1-ylmethyl)-1,3-dihydro-imidazole-2-thione] | 1.07 | sedative effect (male Sprague-Dawley rats): no sedative effect
8 | S=c1[nH]cc(CN2CCCc3ccccc32)[nH]1 [Compound 11, 4-(3,4-dihydro-2H-quinolin-1-ylmethyl)-1,3-dihydro-imidazole-2-thione] | 1.13 | 
9 | CC(c1c[nH]c(=S)[nH]1)c1coc2ccccc12 (stereo not drawn) [Compound 14, 4-(1-benzofuran-3-yl-ethyl)-1,3-dihydro-imidazole-2-thione] | 1.0 | % Pain Reversal ([3]; 30 μg/kg i.p.): 20%; % Pain Reversal ([3]; 300 μg/kg i.p.): 80%
10 | Cc1cccc2ccn(Cc3c[nH]c(=S)[nH]3)c12 [Compound 2, 4-(7-methyl-indol-1-ylmethyl)-1,3-dihydro-imidazole-2-thione] | 1.01 | 
11 | CC(c1c[nH]c(=S)[nH]1)c1ccnc2c1CCCC2 (stereo not drawn) [Compound 12, 4-[1-(5,6,7,8-tetrahydro-quinolin-4-yl)-ethyl]-1,3-dihydro-imidazole-2-thione] | 0.99 | 
12 | S=c1[nH]cc(Cn2ccc3cccc(Cl)c32)[nH]1 [Compound 4, 4-(7-chloro-indol-1-ylmethyl)-1,3-dihydro-imidazole-2-thione] | 1.17 | 
13 | Cc1cccc(C(C)c2c[nH]c(=S)[nH]2)n1 (stereo not drawn) [Compound 9, 4-[1-(6-methyl-pyridin-2-yl)-ethyl]-1,3-dihydro-imidazole-2-thione] | 1.16 | 
